The supplement of paper PMC10307832

How the values were obtained:
Test in all cases: relative viability (nuclei count vs DMSO), 5 days (fraction); higher = more cells survive
AZD1208 + Decitabine = compound: N[C@@H]1CCCN(c2c(/C=C3\SC(=O)NC3=O)cccc2-c2ccccc2)C1 [AZD1208] + Nc1ncn([C@H]2C[C@H](O)[C@@H](CO)O2)c(=O)n1 [Decitabine] (partner 2 µM)
Method in brief: (§1)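 After 5 days of treatment, lung cancer cells in 1536-well plates were fixed and stained in a single step (final 0.05% Triton X-100, 1% formaldehyde, 1 ug/ml Hoechst) and their nuclei counted on 4× images. Treatment had been applied by pin tool the day after seeding as one drug alone or as a fixed anchor-drug dose with five library-drug doses (not always all listed) in √10 steps. Relative viability is the nuclei count of treated wells divided by that of vehicle wells, and values are medians of duplicate plates.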

XMD14-99 + Crizotinib = compound: CN1CCN(CC1)C2=CC(=C(C=C2)NC3=NC(=C(S3)C(=O)C4=C(C=CC=C4Cl)Cl)N)OC [XMD14-99] + C[C@@H](Oc1cc(-c2cnn(C3CCNCC3)c2)cnc1N)c1c(Cl)ccc(F)c1Cl [Crizotinib] (partner 1 µM)
Method in brief: as §1

AZD1208 + Palbociclib = compound: N[C@@H]1CCCN(c2c(/C=C3\SC(=O)NC3=O)cccc2-c2ccccc2)C1 [AZD1208] + CC(=O)c1c(C)c2cnc(Nc3ccc(N4CCNCC4)cn3)nc2n(C2CCCC2)c1=O [Palbociclib] (partner 0.5 µM)
Method in brief: as §1

XMD14-99 + Linsitinib = compound: CN1CCN(CC1)C2=CC(=C(C=C2)NC3=NC(=C(S3)C(=O)C4=C(C=CC=C4Cl)Cl)N)OC [XMD14-99] + C[C@]1(O)C[C@@H](c2nc(-c3ccc4ccc(-c5ccccc5)nc4c3)c3c(N)nccn32)C1 [Linsitinib] (partner 1 µM)
Method in brief: as §1

Row | Cell Line | relative viability (AZD1208 + Decitabine; first compound 0.08 µM) | relative viability (AZD1208 + Decitabine; first compound 0.253 µM) | relative viability (AZD1208 + Decitabine; first compound 0.8 µM) | relative viability (AZD1208 + Decitabine; first compound 2.53 µM) | relative viability (AZD1208 + Decitabine; first compound 8 µM) | relative viability (XMD14-99 + Crizotinib; first compound 0.08 µM) | relative viability (XMD14-99 + Crizotinib; first compound 0.8 µM) | relative viability (XMD14-99 + Crizotinib; first compound 2.53 µM) | relative viability (XMD14-99 + Crizotinib; first compound 8 µM) | relative viability (AZD1208 + Palbociclib; first compound 0.08 µM) | relative viability (AZD1208 + Palbociclib; first compound 0.253 µM) | relative viability (AZD1208 + Palbociclib; first compound 0.8 µM) | relative viability (AZD1208 + Palbociclib; first compound 2.53 µM) | relative viability (AZD1208 + Palbociclib; first compound 8 µM) | relative viability (XMD14-99 + Linsitinib; first compound 0.08 µM) | relative viability (XMD14-99 + Linsitinib; first compound 0.8 µM) | relative viability (XMD14-99 + Linsitinib; first compound 2.53 µM) | relative viability (XMD14-99 + Linsitinib; first compound 8 µM)
1 | 201T | 0.886 | 0.868 | 0.855 | 0.97 | 0.893 | 1.03 | 1.02 | 1.01 | 0.917 | 0.371 | 0.366 | 0.351 | 0.35 | 0.34 | 1.05 | 1.02 | 0.995 | 1
2 | A549 | 0.238 | 0.301 | 0.218 | 0.314 | 0.17 | 0.593 | 0.728 | 0.705 | 0.452 | – | – | – | – | – | 0.636 | 0.599 | 0.629 | 0.505
3 | A-427 | 0.541 | 0.568 | 0.528 | 0.508 | 0.448 | 0.83 | 0.746 | 0.614 | 0.658 | 0.546 | 0.548 | 0.495 | 0.551 | 0.527 | 1.15 | 1.08 | 1.01 | 0.904
4 | ABC-1 | 0.926 | 1.07 | 0.992 | 0.989 | 0.821 | 1 | 1.07 | 1.04 | 0.802 | 0.815 | 0.631 | 0.474 | 0.563 | 0.444 | 0.906 | 0.707 | 0.659 | 0.642
5 | BEN | 0.779 | 0.577 | 0.653 | 0.653 | 0.564 | 0.789 | 0.718 | 0.761 | 0.647 | 0.565 | 0.446 | 0.472 | 0.505 | 0.431 | 0.872 | 0.816 | 0.81 | 0.762
6 | CAL-12T | – | – | – | – | – | 0.926 | 0.609 | 0.724 | 0.466 | 0.501 | 0.483 | 0.569 | 0.434 | 0.448 | 0.796 | 0.826 | 0.709 | 0.641
7 | Calu-6 | – | – | – | – | – | 0.807 | 0.756 | 0.747 | 0.513 | – | – | – | – | – | 0.918 | 0.918 | 0.883 | 0.732
8 | ChaGo-K-1 | 0.522 | 0.509 | 0.399 | 0.481 | 0.465 | 1.1 | 1.14 | 1.19 | 0.92 | 0.905 | 0.969 | 0.874 | 0.906 | 0.884 | – | – | – | –
9 | EBC-1 | – | – | – | – | – | 0.232 | 0.19 | 0.188 | 0.156 | – | – | – | – | – | 0.885 | 0.77 | 0.762 | 0.702
10 | IA-LM | – | – | – | – | – | 0.742 | 0.561 | 0.435 | 0.331 | – | – | – | – | – | 0.648 | 0.308 | 0.286 | 0.281
